The source of these data is ChEMBL document CHEMBL4825721, “Dual Glycolate Oxidase/Lactate Dehydrogenase A Inhibitors for Primary Hyperoxaluria” (ACS Med Chem Lett, 2021).

The target in data set [1] is T1, 2-Hydroxyacid oxidase 1 (Homo sapiens, UniProt Q9UJM8).
T1 sequence (Q9UJM8 whole entry): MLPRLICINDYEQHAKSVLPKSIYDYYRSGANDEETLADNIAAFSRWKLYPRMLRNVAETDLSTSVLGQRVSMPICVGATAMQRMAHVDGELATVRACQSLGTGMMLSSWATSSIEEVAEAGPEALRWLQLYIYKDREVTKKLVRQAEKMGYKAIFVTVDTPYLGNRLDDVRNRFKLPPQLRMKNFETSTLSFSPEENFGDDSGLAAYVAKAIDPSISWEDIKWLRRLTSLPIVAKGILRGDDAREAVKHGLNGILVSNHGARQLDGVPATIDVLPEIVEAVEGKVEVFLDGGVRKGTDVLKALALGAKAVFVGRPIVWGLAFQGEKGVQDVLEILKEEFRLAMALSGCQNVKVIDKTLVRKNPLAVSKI
The data set can be described thus: Inhibition of recombinant human GOX expressed in Escherichia coli C41 (DE3) using glycolate as substrate preincubated for 10 mins followed by substrate addition measured by Amplex red and horseradish peroxidase based fluorescence assay.

Data set [2] deals with L-lactate dehydrogenase A chain (Homo sapiens, UniProt P00338). The data set can be described thus: Inhibition of recombinant human LDHA expressed in BL21 gold (DE3) using sodium pyruvate as substrate preincubated for 10 mins followed by sodium pyruvate and […] addition.
The target in data set [3] is T2, L-lactate dehydrogenase A chain (Mus musculus, UniProt P06151). Put plainly: Inhibition of recombinant mouse LDHA expressed in BL21 gold (DE3) using sodium pyruvate as substrate preincubated for 10 mins followed by sodium pyruvate and […] addition.
The target of data set [4] is T2, L-lactate dehydrogenase A chain. Put plainly: Inhibition of LDHA in wild type CD1 mouse primary hepatocyte assessed as inhibition of lactate production using pyruvate as substrate measured after 30 mins by LC-MS analysis. The data set is classed as tissue-based.
Data set [5] relates to Mus musculus. The data set can be described thus: In vivo inhibition of GOX/LDHA in C57BL/6N mouse assessed as increase in plasma glycolate levels at 100 mg/kg, po measured after 6 hrs. It counts as functional, organism-based.
A short description of data set [6]: Drug distribution in C57BL/6N mouse liver at 100 mg/kg, po measured after 6 hrs by LC-MS/MS analysis. The data set is classed as ADME, organism-based. To be noted: in vivo.
Data set [7] deals with T3, 2-Hydroxyacid oxidase 1 (Mus musculus, UniProt Q9WU19).
T3 sequence (Q9WU19 whole entry): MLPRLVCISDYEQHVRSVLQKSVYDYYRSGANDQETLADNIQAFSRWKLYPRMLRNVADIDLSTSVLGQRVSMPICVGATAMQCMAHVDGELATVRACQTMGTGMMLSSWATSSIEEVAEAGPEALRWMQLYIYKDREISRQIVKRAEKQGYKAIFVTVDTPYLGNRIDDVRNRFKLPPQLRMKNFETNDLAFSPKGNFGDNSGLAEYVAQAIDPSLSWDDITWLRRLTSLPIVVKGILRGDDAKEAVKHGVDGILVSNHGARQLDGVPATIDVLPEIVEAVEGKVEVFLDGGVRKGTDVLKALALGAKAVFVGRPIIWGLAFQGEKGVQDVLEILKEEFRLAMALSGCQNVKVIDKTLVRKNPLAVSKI
The data set can be described thus: Inhibition of recombinant mouse GOX expressed in Escherichia coli C41 (DE3) using glycolate as substrate preincubated for 10 mins followed by substrate addition measured by Amplex red and horseradish peroxidase based fluorescence assay.

Data set [8] is described as follows: Inhibition of GOX/LDHA in Ag xt knockdown PH1 mouse primary hepatocyte assessed as reduction of oxalate production in the presence of glycolate measured after 2 hrs by ICMS analysis. It counts as tissue-based.
Data set [9] has as its target T4, Hydroxyacid oxidase 1 (Sus scrofa, UniProt I3LVF1).
T4 sequence (I3LVF1 whole entry): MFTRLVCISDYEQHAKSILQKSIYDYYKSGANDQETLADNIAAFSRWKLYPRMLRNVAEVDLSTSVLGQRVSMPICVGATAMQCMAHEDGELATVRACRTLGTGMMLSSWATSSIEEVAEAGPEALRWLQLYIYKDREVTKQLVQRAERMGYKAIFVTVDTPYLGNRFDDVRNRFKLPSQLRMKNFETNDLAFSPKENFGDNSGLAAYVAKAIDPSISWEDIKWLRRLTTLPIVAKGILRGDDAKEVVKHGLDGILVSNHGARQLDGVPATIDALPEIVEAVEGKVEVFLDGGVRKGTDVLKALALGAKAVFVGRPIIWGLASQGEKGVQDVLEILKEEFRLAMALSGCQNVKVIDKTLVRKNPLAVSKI
Put plainly: Inhibition of pig HAO1 in presence of NADH by spectrometry analysis.

Data set [10] in a line: In vivo inhibition of GOX/LDHA in C57BL/6N mouse assessed as increase in plasma glycolate levels at 100 mg/kg, po measured after 2 hrs. The data set is classed as functional.
A short description of data set [11]: Drug distribution in C57BL/6N mouse liver at 100 mg/kg, po measured after 2 hrs by LC-MS/MS analysis. It counts as ADME, organism-based. To be noted: in vivo.
Data set [12] concerns the target T3, 2-Hydroxyacid oxidase 1. Put plainly: Non competitive inhibition of mouse glycolate oxidase in hyperoxaluric-Agxt knockdown mouse primary hepatocyte assessed as reduction in oxalate production in the presence of glycolate measured upto 72 hrs by enzymatic assay. It counts as tissue-based.

Structures are written as SMILES. Active and inactive are the calls of the source. No cut-off for these calls is given here.

`NS(=O)(=O)c1ccc(Cc2c(-c3ccc(F)c(-c4cccc(Oc5[nH]nnc5C(=O)O)c4)c3)nn(-c3nc(C(=O)O)cs3)c2CC2CC2)cc1F`: the half-maximal inhibitory concentration (IC50) in data set [1] turned out to be 0.9 nM; in data set [2], 0.1 nM; in [3] it was 0.2 nM; in data set [4], 143 nM. The inhibition result in [5] is “inactive”. Besides, in [6], the Drug uptake entry was “Not Active”.

`NS(=O)(=O)c1ccc(Cc2c(-c3ccc(F)c(-c4ccc(Oc5nn[nH]c5C(=O)O)cc4)c3)nn(-c3nc(C(=O)O)cs3)c2CC2CC2)cc1F`: the 50% inhibitory concentration (IC50) was determined as 1.2 nM in data set [1], 0.07 nM in data set [2], 0.4 nM in data set [3] and 198 nM in data set [4].

As for `NS(=O)(=O)c1ccc(Cc2c(-c3ccc(F)c(-c4ccc(-c5nn[nH]c5C(=O)O)cc4)c3)nn(-c3nc(C(=O)O)cs3)c2CC2CC2)cc1F`, the IC50 in data set [1] is 3.6 nM; in [2] it was 0.3 nM; in data set [3], 0.4 nM; in [4], 170 nM.

`NS(=O)(=O)c1ccc(Cc2c(-c3cccc(Sc4[nH]nnc4C(=O)O)c3)nn(-c3nc(C(=O)O)cs3)c2CC2CC2)cc1F`: the IC50 in data set [1] is 4.7 nM; in data set [2] it was 0.5 nM; in data set [3], 0.7 nM; in data set [4], 136 nM; in [7], 7.7 nM; in data set [8], 88 nM. In addition, the inhibition result in [5] was “inactive”. The Drug uptake entry in data set [6] is “Not Active”.

With `NS(=O)(=O)c1ccc(Cc2c(-c3cccc(-c4ccccc4)c3)nn(-c3nc(C(=O)O)cs3)c2CC2CC2)cc1`, the half-inhibitory concentration (IC50) in [3] came out at 0.1 nM; in [8] it was 181 nM.

On to `O=C1NC(=O)C(c2ccc(-c3ccc(Br)cc3)cc2)=C1O`, for which the IC50 in [9] stood at 87 nM.

For `NS(=O)(=O)c1ccc(Cc2c(-c3ccc(F)c(Oc4[nH]nnc4C(=O)O)c3)nn(-c3nc(C(=O)O)cs3)c2CC2CC2)cc1F`, the IC50 in data set [1] came out at 11 nM; in data set [2] it was 0.4 nM; in [3], 0.3 nM; in data set [4], 732 nM.

`O=C(O)c1[nH]nnc1Sc1ccc(Cl)cc1`: the IC50 came to 6.7 nM in [1], 14.6 nM in data set [7] and 149 nM in [8]. In addition, the “fold change (FC)” value in [10] is given as 4. The Drug uptake result in data set [11] was “Active”.

Regarding `O=C(O)c1nnsc1Sc1ccc(Cl)cc1`, the Ki in data set [12] came to 4500 nM.

In the case of `NS(=O)(=O)c1ccc(Cc2c(-c3ccc(F)c(-c4ccc(Sc5nn[nH]c5C(=O)O)cc4)c3)nn(-c3nc(C(=O)O)cs3)c2CC2CC2)cc1F`, the IC50 was 1.1 nM in data set [1], 0.3 nM in data set [2], 0.2 nM in [3] and 230 nM in data set [4].
